From PubChem BioAssay (NCI)
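Grown in 96-well plates, cells were treated for 48 hours with each compound at five concentrations. Insufficient inhibition: endpoint recorded as highest concentration tested. The concentration for full growth arrest is given as TGI.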

Tests used:
Assay in all cases: DTP human tumour cell line panel, 48 h
SF-539 CNS = tested on: SF-539 CNS
OVCAR-5 ovarian = tested on: OVCAR-5 ovarian
HCT-116 colon = tested on: HCT-116 colon
MOLT-4 leukemia = tested on: MOLT-4 leukemia
HL-60(TB) leukemia = tested on: HL-60(TB) leukemia
OVCAR-3 ovarian = tested on: OVCAR-3 ovarian
SK-MEL-2 melanoma = tested on: SK-MEL-2 melanoma
SNB-19 CNS = tested on: SNB-19 CNS
RXF-631 renal = tested on: RXF-631 renal
EKVX NSCLC = tested on: EKVX NSCLC
SF-295 CNS = tested on: SF-295 CNS
ACHN renal = tested on: ACHN renal
K-562 leukemia = tested on: K-562 leukemia
UACC-257 melanoma = tested on: UACC-257 melanoma
SNB-78 CNS = tested on: SNB-78 CNS
A498 renal = tested on: A498 renal
SR leukemia = tested on: SR leukemia
SW-620 colon = tested on: SW-620 colon
SNB-75 CNS = tested on: SNB-75 CNS
HT29 colon = tested on: HT29 colon
M19-MEL melanoma = tested on: M19-MEL melanoma
COLO 205 colon = tested on: COLO 205 colon
DMS 114 small cell lung = tested on: DMS 114 small cell lung
U251 CNS = tested on: U251 CNS
MALME-3M melanoma = tested on: MALME-3M melanoma
CAKI-1 renal = tested on: CAKI-1 renal
UACC-62 melanoma = tested on: UACC-62 melanoma
OVCAR-8 ovarian = tested on: OVCAR-8 ovarian
SF-268 CNS = tested on: SF-268 CNS
786-0 renal = tested on: 786-0 renal
CCRF-CEM leukemia = tested on: CCRF-CEM leukemia
SN12C renal = tested on: SN12C renal
M14 melanoma = tested on: M14 melanoma
HOP-62 NSCLC = tested on: HOP-62 NSCLC
IGROV1 ovarian = tested on: IGROV1 ovarian
NCI-H23 lung = tested on: NCI-H23 lung
A549 NSCLC = tested on: A549 NSCLC
LOX IMVI melanoma = tested on: LOX IMVI melanoma
HCT-15 colon = tested on: HCT-15 colon
RXF 393 renal = tested on: RXF 393 renal
NCI-H226 lung = tested on: NCI-H226 lung
KM20L2 colon = tested on: KM20L2 colon
TK-10 renal = tested on: TK-10 renal
SK-MEL-5 melanoma = tested on: SK-MEL-5 melanoma
DMS 273 small cell lung = tested on: DMS 273 small cell lung
NCI-H460 lung = tested on: NCI-H460 lung
NCI-H522 lung = tested on: NCI-H522 lung
HOP-92 NSCLC = tested on: HOP-92 NSCLC
UO-31 renal = tested on: UO-31 renal
OVCAR-4 ovarian = tested on: OVCAR-4 ovarian
LXFL 529 NSCLC = tested on: LXFL 529 NSCLC
DLD-1 colon = tested on: DLD-1 colon
SK-MEL-28 melanoma = tested on: SK-MEL-28 melanoma
KM12 colon = tested on: KM12 colon
HOP-18 NSCLC = tested on: HOP-18 NSCLC
RPMI-8226 leukemia = tested on: RPMI-8226 leukemia
SK-OV-3 ovarian = tested on: SK-OV-3 ovarian
HCC-2998 colon = tested on: HCC-2998 colon
XF 498 CNS = tested on: XF 498 CNS

Structure (SMILES): CCOC(=O)c1cc2c(nc1N)-c1ncccc1CC2
- TGI (SF-539 CNS): > 100 µM
- TGI (OVCAR-5 ovarian): > 100 µM
- TGI (HCT-116 colon): > 100 µM
- TGI (MOLT-4 leukemia): > 100 µM
- TGI (HL-60(TB) leukemia): > 100 µM
- TGI (OVCAR-3 ovarian): > 100 µM
- TGI (SK-MEL-2 melanoma): > 100 µM
- TGI (SNB-19 CNS): > 100 µM
- TGI (RXF-631 renal): > 100 µM
- TGI (EKVX NSCLC): > 100 µM
- TGI (SF-295 CNS): > 100 µM
- TGI (ACHN renal): > 100 µM
- TGI (K-562 leukemia): > 100 µM
- TGI (UACC-257 melanoma): > 100 µM
- TGI (SNB-78 CNS): > 100 µM
- TGI (A498 renal): > 100 µM
- TGI (SR leukemia): 57 µM
- TGI (SW-620 colon): > 100 µM
- TGI (SNB-75 CNS): > 100 µM
- TGI (HT29 colon): > 100 µM
- TGI (M19-MEL melanoma): > 100 µM
- TGI (COLO 205 colon): 69.2 µM
- TGI (DMS 114 small cell lung): 33 µM
- TGI (U251 CNS): > 100 µM
- TGI (MALME-3M melanoma): > 100 µM
- TGI (CAKI-1 renal): > 100 µM
- TGI (UACC-62 melanoma): > 100 µM
- TGI (OVCAR-8 ovarian): > 100 µM
- TGI (SF-268 CNS): > 100 µM
- TGI (786-0 renal): > 100 µM
- TGI (CCRF-CEM leukemia): > 100 µM
- TGI (SN12C renal): > 100 µM
- TGI (M14 melanoma): > 100 µM
- TGI (HOP-62 NSCLC): > 100 µM
- TGI (IGROV1 ovarian): > 100 µM
- TGI (NCI-H23 lung): > 100 µM
- TGI (A549 NSCLC): > 100 µM
- TGI (LOX IMVI melanoma): > 100 µM
- TGI (HCT-15 colon): > 100 µM
- TGI (RXF 393 renal): > 100 µM
- TGI (NCI-H226 lung): > 100 µM
- TGI (KM20L2 colon): > 100 µM
- TGI (TK-10 renal): > 100 µM
- TGI (SK-MEL-5 melanoma): > 100 µM
- TGI (DMS 273 small cell lung): > 100 µM
- TGI (NCI-H460 lung): > 100 µM
- TGI (NCI-H522 lung): > 100 µM
- TGI (HOP-92 NSCLC): > 100 µM
- TGI (UO-31 renal): > 100 µM
- TGI (OVCAR-4 ovarian): > 100 µM
- TGI (LXFL 529 NSCLC): > 100 µM
- TGI (DLD-1 colon): > 100 µM
- TGI (SK-MEL-28 melanoma): > 100 µM
- TGI (KM12 colon): > 100 µM
- TGI (HOP-18 NSCLC): > 100 µM
- TGI (RPMI-8226 leukemia): 68.8 µM
- TGI (SK-OV-3 ovarian): > 100 µM
- TGI (HCC-2998 colon): > 100 µM

Structure (SMILES): CC(O)C(N=Cc1nc(-c2ccccc2)oc1O)C(=O)O (stereo unspecified)
- TGI (SF-539 CNS): > 100 µM
- TGI (OVCAR-5 ovarian): > 100 µM
- TGI (HCT-116 colon): > 100 µM
- TGI (OVCAR-3 ovarian): > 100 µM
- TGI (SK-MEL-2 melanoma): > 100 µM
- TGI (SNB-19 CNS): > 100 µM
- TGI (RXF-631 renal): > 100 µM
- TGI (EKVX NSCLC): > 100 µM
- TGI (SF-295 CNS): > 100 µM
- TGI (ACHN renal): > 100 µM
- TGI (K-562 leukemia): > 100 µM
- TGI (UACC-257 melanoma): > 100 µM
- TGI (SNB-78 CNS): > 100 µM
- TGI (A498 renal): > 100 µM
- TGI (XF 498 CNS): > 100 µM
- TGI (SW-620 colon): > 100 µM
- TGI (SNB-75 CNS): > 100 µM
- TGI (HT29 colon): > 100 µM
- TGI (M19-MEL melanoma): > 100 µM
- TGI (COLO 205 colon): > 100 µM
- TGI (DMS 114 small cell lung): > 100 µM
- TGI (U251 CNS): > 100 µM
- TGI (MALME-3M melanoma): > 100 µM
- TGI (CAKI-1 renal): > 100 µM
- TGI (UACC-62 melanoma): > 100 µM
- TGI (OVCAR-8 ovarian): > 100 µM
- TGI (SF-268 CNS): > 100 µM
- TGI (786-0 renal): > 100 µM
- TGI (CCRF-CEM leukemia): > 100 µM
- TGI (M14 melanoma): > 100 µM
- TGI (HOP-62 NSCLC): > 100 µM
- TGI (IGROV1 ovarian): > 100 µM
- TGI (NCI-H23 lung): > 100 µM
- TGI (A549 NSCLC): > 100 µM
- TGI (LOX IMVI melanoma): > 100 µM
- TGI (RXF 393 renal): > 100 µM
- TGI (NCI-H226 lung): > 100 µM
- TGI (KM20L2 colon): > 100 µM
- TGI (TK-10 renal): > 100 µM
- TGI (SK-MEL-5 melanoma): > 100 µM
- TGI (DMS 273 small cell lung): > 100 µM
- TGI (NCI-H460 lung): > 100 µM
- TGI (NCI-H522 lung): > 100 µM
- TGI (HOP-92 NSCLC): > 100 µM
- TGI (UO-31 renal): > 100 µM
- TGI (OVCAR-4 ovarian): > 100 µM
- TGI (LXFL 529 NSCLC): > 100 µM
- TGI (DLD-1 colon): > 100 µM
- TGI (SK-MEL-28 melanoma): > 100 µM
- TGI (KM12 colon): > 100 µM
- TGI (HOP-18 NSCLC): > 100 µM
- TGI (RPMI-8226 leukemia): > 100 µM
- TGI (SK-OV-3 ovarian): > 100 µM
- TGI (HCC-2998 colon): > 100 µM

Structure (SMILES): COc1ccc(N=Nc2c(-c3ccccc3)nn(C(=O)CC(=O)Nc3cccc(Cl)c3)c2-c2ccccc2)cc1
- TGI (SF-539 CNS): > 100 µM
- TGI (OVCAR-5 ovarian): > 100 µM
- TGI (HCT-116 colon): > 100 µM
- TGI (MOLT-4 leukemia): > 100 µM
- TGI (HL-60(TB) leukemia): > 100 µM
- TGI (OVCAR-3 ovarian): > 100 µM
- TGI (SK-MEL-2 melanoma): > 100 µM
- TGI (SNB-19 CNS): > 100 µM
- TGI (EKVX NSCLC): > 100 µM
- TGI (SF-295 CNS): > 100 µM
- TGI (ACHN renal): > 100 µM
- TGI (K-562 leukemia): > 100 µM
- TGI (UACC-257 melanoma): > 100 µM
- TGI (A498 renal): > 100 µM
- TGI (XF 498 CNS): > 100 µM
- TGI (SW-620 colon): > 100 µM
- TGI (SNB-75 CNS): > 100 µM
- TGI (HT29 colon): > 100 µM
- TGI (M19-MEL melanoma): > 100 µM
- TGI (COLO 205 colon): > 100 µM
- TGI (DMS 114 small cell lung): > 100 µM
- TGI (U251 CNS): > 100 µM
- TGI (MALME-3M melanoma): > 100 µM
- TGI (CAKI-1 renal): > 100 µM
- TGI (UACC-62 melanoma): > 100 µM
- TGI (OVCAR-8 ovarian): > 100 µM
- TGI (SF-268 CNS): > 100 µM
- TGI (786-0 renal): > 100 µM
- TGI (CCRF-CEM leukemia): > 100 µM
- TGI (SN12C renal): > 100 µM
- TGI (HOP-62 NSCLC): > 100 µM
- TGI (IGROV1 ovarian): > 100 µM
- TGI (NCI-H23 lung): > 100 µM
- TGI (A549 NSCLC): > 100 µM
- TGI (LOX IMVI melanoma): > 100 µM
- TGI (HCT-15 colon): > 100 µM
- TGI (NCI-H226 lung): 68.1 µM
- TGI (KM20L2 colon): > 100 µM
- TGI (TK-10 renal): > 100 µM
- TGI (SK-MEL-5 melanoma): > 100 µM
- TGI (DMS 273 small cell lung): > 100 µM
- TGI (NCI-H460 lung): > 100 µM
- TGI (NCI-H522 lung): > 100 µM
- TGI (HOP-92 NSCLC): > 100 µM
- TGI (UO-31 renal): > 100 µM
- TGI (OVCAR-4 ovarian): > 100 µM
- TGI (LXFL 529 NSCLC): > 100 µM
- TGI (DLD-1 colon): > 100 µM
- TGI (SK-MEL-28 melanoma): > 100 µM
- TGI (KM12 colon): > 100 µM
- TGI (HOP-18 NSCLC): > 100 µM
- TGI (RPMI-8226 leukemia): > 100 µM
- TGI (SK-OV-3 ovarian): > 100 µM
- TGI (HCC-2998 colon): 80.4 µM
